Source: ChEMBL document CHEMBL3046822, “Synthesis, antiplatelet aggregation activity, and molecular modeling study of novel substituted-piperazine analogues” (2011)
Calls of active or inactive are those of the source. The calls are words filed in the database; no cut-off is given here.

Key:
[1] = Antiaggregating activity in Homo sapiens (human) platelet rich plasma assessed as ADP-induced platelet aggregation at 0.1 uM incubated for 4 min prior to ADP-induction measured for 5.5 min by turbidometric analysis (reference value: 54 to 88%); type: functional
Platelet [2] = assay: Antiaggregating activity in Homo sapiens (human) platelet rich plasma assessed as inhibition of arachidonic acid-induced platelet aggregation at 1 uM incubated for 4 min prior to arachidonic acid-induction measured for 5.5 min by turbidometric analysis; type: functional, cell-free
Platelet [3] = assay: Antiaggregating activity in Homo sapiens (human) platelet rich plasma assessed as inhibition of ADP-induced platelet aggregation at 0.8 uM incubated for 4 min prior to ADP-induction measured for 5.5 min by turbidometric analysis; type: functional, cell-free
Platelet [4] = assay: Antiaggregating activity in Homo sapiens (human) platelet rich plasma assessed as inhibition of adrenaline-induced platelet aggregation at 0.5 uM incubated for 4 min prior to adrenaline-induction measured for 5.5 min by turbidometric analysis; type: functional, cell-free
Platelet [5] = assay: Antiaggregating activity in Homo sapiens (human) platelet rich plasma assessed as inhibition of adrenaline-induced platelet aggregation at 1 uM incubated for 4 min prior to adrenaline-induction measured for 5.5 min by turbidometric analysis; type: functional, cell-free
Platelet [6] = assay: Antiaggregating activity in Homo sapiens (human) platelet rich plasma assessed as inhibition of adrenaline-induced platelet aggregation at 0.1 uM incubated for 4 min prior to adrenaline-induction measured for 5.5 min by turbidometric analysis; type: functional, cell-free
Platelet [7] = assay: Antiaggregating activity in Homo sapiens (human) platelet rich plasma assessed as inhibition of adrenaline-induced platelet aggregation at 2 uM incubated for 4 min prior to adrenaline-induction measured for 5.5 min by turbidometric analysis; type: functional, cell-free
Platelet [8] = assay: Antiaggregating activity in Homo sapiens (human) platelet rich plasma assessed as inhibition of collagen-induced platelet aggregation at 0.8 uM incubated for 4 min prior to collagen-induction measured for 5.5 min by turbidometric analysis; type: functional, cell-free
[9] = Antiaggregating activity in Homo sapiens (human) platelet rich plasma assessed as ristocetin-induced platelet aggregation at 1 uM incubated for 4 min prior to ristocetin-induction measured for 5.5 min by turbidometric analysis (reference value: 65 to 99%); type: functional
[10] = Antiaggregating activity in Homo sapiens (human) platelet rich plasma assessed as ristocetin-induced platelet aggregation at 0.5 uM incubated for 4 min prior to ristocetin-induction measured for 5.5 min by turbidometric analysis (reference value: 65 to 99%); type: functional
[11] = Antiaggregating activity in Homo sapiens (human) platelet rich plasma assessed as ADP-induced platelet aggregation at 0.5 uM incubated for 4 min prior to ADP-induction measured for 5.5 min by turbidometric analysis (reference value: 54 to 88%); type: functional
Platelet [12] = assay: Antiaggregating activity in Homo sapiens (human) platelet rich plasma assessed as inhibition of ADP-induced platelet aggregation at 2 uM incubated for 4 min prior to ADP-induction measured for 5.5 min by turbidometric analysis; type: functional, cell-free
Platelet [13] = assay: Antiaggregating activity in Homo sapiens (human) platelet rich plasma assessed as inhibition of ADP-induced platelet aggregation at 1 uM incubated for 4 min prior to ADP-induction measured for 5.5 min by turbidometric analysis; type: functional, cell-free
[14] = Antiaggregating activity in Homo sapiens (human) platelet rich plasma assessed as collagen-induced platelet aggregation at 0.5 uM incubated for 4 min prior to collagen-induction measured for 5.5 min by turbidometric analysis (reference value: 50 to 98%); type: functional
Platelet [15] = assay: Antiaggregating activity in Homo sapiens (human) platelet rich plasma assessed as inhibition of collagen-induced platelet aggregation at 2 uM incubated for 4 min prior to collagen-induction measured for 5.5 min by turbidometric analysis; type: functional, cell-free
[16] = Antiaggregating activity in Homo sapiens (human) platelet rich plasma assessed as collagen-induced platelet aggregation at 0.1 uM incubated for 4 min prior to collagen-induction measured for 5.5 min by turbidometric analysis (reference value: 50 to 98%); type: functional
Platelet [17] = assay: Antiaggregating activity in Homo sapiens (human) platelet rich plasma assessed as inhibition of collagen-induced platelet aggregation at 1 uM incubated for 4 min prior to collagen-induction measured for 5.5 min by turbidometric analysis; type: functional, cell-free
Platelet [18] = assay: Antiaggregating activity in Homo sapiens (human) platelet rich plasma assessed as inhibition of adrenaline-induced platelet aggregation at 0.8 uM incubated for 4 min prior to adrenaline-induction measured for 5.5 min by turbidometric analysis; type: functional, cell-free
[19] = Antiaggregating activity in Homo sapiens (human) platelet rich plasma assessed as ristocetin-induced platelet aggregation at 0.8 uM incubated for 4 min prior to ristocetin-induction measured for 5.5 min by turbidometric analysis (reference value: 65 to 99%); type: functional
Platelet [20] = assay: Antiaggregating activity in Homo sapiens (human) platelet rich plasma assessed as inhibition of ristocetin-induced platelet aggregation at 2 uM incubated for 4 min prior to ristocetin-induction measured for 5.5 min by turbidometric analysis; type: functional, cell-free
[21] = Antiaggregating activity in Homo sapiens (human) platelet rich plasma assessed as ristocetin-induced platelet aggregation at 0.1 uM incubated for 4 min prior to ristocetin-induction measured for 5.5 min by turbidometric analysis (reference value: 65 to 99%); type: functional
[22] = Antiaggregating activity in Homo sapiens (human) platelet rich plasma assessed as arachidonic acid-induced platelet aggregation at 0.1 uM incubated for 4 min prior to arachidonic acid-induction measured for 5.5 min by turbidometric analysis (reference value: 55 to 100%); type: functional
Platelet [23] = assay: Antiaggregating activity in Homo sapiens (human) platelet rich plasma assessed as inhibition of arachidonic acid-induced platelet aggregation at 0.8 uM incubated for 4 min prior to arachidonic acid-induction measured for 5.5 min by turbidometric analysis; type: functional, cell-free
[24] = Antiaggregating activity in Homo sapiens (human) platelet rich plasma assessed as arachidonic acid-induced platelet aggregation at 0.5 uM incubated for 4 min prior to arachidonic acid-induction measured for 5.5 min by turbidometric analysis (reference value: 55 to 100%); type: functional
Platelet [25] = assay: Antiaggregating activity in Homo sapiens (human) platelet rich plasma assessed as inhibition of arachidonic acid-induced platelet aggregation at 2 uM incubated for 4 min prior to arachidonic acid-induction measured for 5.5 min by turbidometric analysis; type: functional, cell-free
[26] = Antiaggregating activity in Homo sapiens (human) platelet rich plasma assessed as ADP-induced platelet aggregation at 2 uM incubated for 4 min prior to ADP-induction measured for 5.5 min by turbidometric analysis (reference value: 54 to 88%); type: functional
[27] = Antiaggregating activity in Homo sapiens (human) platelet rich plasma assessed as ristocetin-induced platelet aggregation at 5 uM incubated for 4 min prior to ristocetin-induction measured for 5.5 min by turbidometric analysis (reference value: 65 to 99%); type: functional
Platelet [28] = assay: Antiaggregating activity in Homo sapiens (human) platelet rich plasma assessed as inhibition of adrenaline-induced platelet aggregation at 5 uM incubated for 4 min prior to adrenaline-induction measured for 5.5 min by turbidometric analysis; type: functional, cell-free
[29] = Antiaggregating activity in Homo sapiens (human) platelet rich plasma assessed as adrenaline-induced platelet aggregation at 1 uM incubated for 4 min prior to adrenaline-induction measured for 5.5 min by turbidometric analysis (reference value: 65 to 100%); type: functional
[30] = Antiaggregating activity in Homo sapiens (human) platelet rich plasma assessed as ristocetin-induced platelet aggregation at 2 uM incubated for 4 min prior to ristocetin-induction measured for 5.5 min by turbidometric analysis (reference value: 65 to 99%); type: functional
[31] = Antiaggregating activity in Homo sapiens (human) platelet rich plasma assessed as disaggregation of ADP-induced platelet aggregation at 5 uM incubated for 4 min prior to ADP-induction measured for 5.5 min by turbidometric analysis relative to control; type: functional
[32] = Antiaggregating activity in Homo sapiens (human) platelet rich plasma assessed as ADP-induced platelet aggregation at 1 uM incubated for 4 min prior to ADP-induction measured for 5.5 min by turbidometric analysis (reference value: 54 to 88%); type: functional
Platelet [33] = assay: Antiaggregating activity in Homo sapiens (human) platelet rich plasma assessed as inhibition of collagen-induced platelet aggregation at 5 uM incubated for 4 min prior to collagen-induction measured for 5.5 min by turbidometric analysis; type: functional, cell-free
[34] = Antiaggregating activity in Homo sapiens (human) platelet rich plasma assessed as collagen-induced platelet aggregation at 1 uM incubated for 4 min prior to collagen-induction measured for 5.5 min by turbidometric analysis (reference value: 50 to 98%); type: functional
[35] = Antiaggregating activity in Homo sapiens (human) platelet rich plasma assessed as adrenaline-induced platelet aggregation at 2 uM incubated for 4 min prior to adrenaline-induction measured for 5.5 min by turbidometric analysis (reference value: 65 to 100%); type: functional
[36] = Antiaggregating activity in Homo sapiens (human) platelet rich plasma assessed as collagen-induced platelet aggregation at 2 uM incubated for 4 min prior to collagen-induction measured for 5.5 min by turbidometric analysis (reference value: 50 to 98%); type: functional
[37] = Antiaggregating activity in Homo sapiens (human) platelet rich plasma assessed as disaggregation of arachidonic acid-induced platelet aggregation at 2 uM incubated for 4 min prior to arachidonic acid-induction measured for 5.5 min by turbidometric analysis relative to control; type: functional
Platelet [38] = assay: Antiaggregating activity in Homo sapiens (human) platelet rich plasma assessed as inhibition of arachidonic acid-induced platelet aggregation at 5 uM incubated for 4 min prior to arachidonic acid-induction measured for 5.5 min by turbidometric analysis; type: functional, cell-free
[39] = Antiaggregating activity in Homo sapiens (human) platelet rich plasma assessed as arachidonic acid-induced platelet aggregation at 1 uM incubated for 4 min prior to arachidonic acid-induction measured for 5.5 min by turbidometric analysis (reference value: 55 to 100%); type: functional
[40] = Antiaggregating activity in Homo sapiens (human) platelet rich plasma assessed as ADP-induced platelet aggregation at 10 uM incubated for 4 min prior to ADP-induction measured for 5.5 min by turbidometric analysis (reference value: 54 to 88%); type: functional
Platelet [41] = assay: Antiaggregating activity in Homo sapiens (human) platelet rich plasma assessed as inhibition of ADP-induced platelet aggregation at 50 uM incubated for 4 min prior to ADP-induction measured for 5.5 min by turbidometric analysis; type: functional, cell-free
[42] = Antiaggregating activity in Homo sapiens (human) platelet rich plasma assessed as arachidonic acid-induced platelet aggregation at 10 uM incubated for 4 min prior to arachidonic acid-induction measured for 5.5 min by turbidometric analysis (reference value: 55 to 100%); type: functional
Platelet [43] = assay: Antiaggregating activity in Homo sapiens (human) platelet rich plasma assessed as inhibition of arachidonic acid-induced platelet aggregation at 50 uM incubated for 4 min prior to arachidonic acid-induction measured for 5.5 min by turbidometric analysis; type: functional, cell-free
[44] = Antiaggregating activity in Homo sapiens (human) platelet rich plasma assessed as ristocetin-induced platelet aggregation at 10 uM incubated for 4 min prior to ristocetin-induction measured for 5.5 min by turbidometric analysis (reference value: 65 to 99%); type: functional
[45] = Antiaggregating activity in Homo sapiens (human) platelet rich plasma assessed as adrenaline-induced platelet aggregation at 10 uM incubated for 4 min prior to adrenaline-induction measured for 5.5 min by turbidometric analysis (reference value: 65 to 100%); type: functional
Platelet [46] = assay: Antiaggregating activity in Homo sapiens (human) platelet rich plasma assessed as inhibition of adrenaline-induced platelet aggregation at 50 uM incubated for 4 min prior to adrenaline-induction measured for 5.5 min by turbidometric analysis; type: functional, cell-free
Platelet [47] = assay: Antiaggregating activity in Homo sapiens (human) platelet rich plasma assessed as inhibition of collagen-induced platelet aggregation at 50 uM incubated for 4 min prior to collagen-induction measured for 5.5 min by turbidometric analysis; type: functional, cell-free
[48] = Antiaggregating activity in Homo sapiens (human) platelet rich plasma assessed as collagen-induced platelet aggregation at 10 uM incubated for 4 min prior to collagen-induction measured for 5.5 min by turbidometric analysis (reference value: 50 to 98%); type: functional
[49] = Antiaggregating activity in Homo sapiens (human) platelet rich plasma assessed as ristocetin-induced platelet aggregation at 50 uM incubated for 4 min prior to ristocetin-induction measured for 5.5 min by turbidometric analysis (reference value: 65 to 99%); type: functional

COc1cc(C(=O)N2CCCC(C(=O)N3CCN(c4ncccn4)CC3)C2)cc(OC)c1OC.Cl (stereo not given)
Activity [1]: 72%
inhibition (Platelet [2]): Active
inhibition (Platelet [3]): Active
inhibition (Platelet [4]): Active
inhibition (Platelet [5]): Active
inhibition (Platelet [6]): Active
inhibition (Platelet [7]): Active
inhibition (Platelet [8]): Active
Activity [9]: 75%
Activity [10]: 68%
Activity [11]: 50%
inhibition (Platelet [12]): Active
inhibition (Platelet [13]): Active
Activity [14]: 78%
inhibition (Platelet [15]): Active
Activity [16]: 67%
inhibition (Platelet [17]): Active
inhibition (Platelet [18]): Active
Activity [19]: 55%
inhibition (Platelet [20]): Active
Activity [21]: 77%
Activity [22]: 76%
inhibition (Platelet [23]): Active
Activity [24]: 54%
inhibition (Platelet [25]): Active

O=C(c1ccc[n+](Cc2ccc(C[n+]3cccc(C(=O)N4CCN(c5ccccc5Cl)CC4)c3)cc2)c1)N1CCN(c2ccccc2Cl)CC1.[Br-].[Br-]
Activity [26]: 79%
Activity [27]: 51%
inhibition (Platelet [28]): Active
Activity [29]: 22%
Activity [30]: 65%
Activity [9]: 78%
Activity [31]: 13%
Activity [32]: 91%
inhibition (Platelet [33]): Active
Activity [34]: 84%
Activity [35]: 21%
Activity [36]: 26%
Activity [37]: 16%
inhibition (Platelet [38]): Active
Activity [39]: 40%

O=C(c1ccc[n+](Cc2ccc(C[n+]3cccc(C(=O)N4CCN(c5ncccn5)CC4)c3)cc2)c1)N1CCN(c2ncccn2)CC1.[Br-].[Br-]
Activity [40]: 71%
inhibition (Platelet [41]): Active
Activity [42]: 71%
inhibition (Platelet [43]): Active
Activity [44]: 82%
Activity [29]: 73%
Activity [9]: 78%
Activity [32]: 70%
Activity [34]: 73%
Activity [45]: 28%
inhibition (Platelet [46]): Active
inhibition (Platelet [47]): Active
Activity [48]: 82%
Activity [49]: 73%
Activity [39]: 70%
